Laboratory results as given in ChEMBL document CHEMBL2010773, “Design and synthesis of a vialinin A analog with a potent inhibitory activity of TNF-α production and its transformation into a couple of bioprobes” (Bioorg Med Chem Lett, 2012).
Calls of active or inactive are those of the source. No cut-off for these calls is given here.

Key:
[1] = test system: RBL-2H3; test: Antiinflammatory activity in rat RBL2H3 cells assessed as inhibition of DNP-BSA-induced TNF-alpha production preincubated for 15 mins prior DNP-BSA challenge measured after 30 mins by ELISA; assay type: functional, cell-based
[2] = test system: Radical scavenging activity; test: Antioxidant activity assessed as DPPH radical scavenging activity after 30 mins by spectrophotometry; assay type: functional
[3] = test system: RBL-2H3; test: Antiinflammatory activity in rat RBL2H3 cells assessed as inhibition of DNP-BSA-induced TNF-alpha production at 1 nM preincubated for 15 mins prior DNP-BSA challenge measured after 30 mins by ELISA; assay type: functional, cell-based

Row | Structure (SMILES) | IC50 [1] | EC50 [2] | inhibition [3]
1 | O=C(Cc1ccccc1)Oc1c(OC(=O)Cc2ccccc2)c(-c2ccc(O)cc2)c(O)c(O)c1-c1ccc(O)cc1 [VIALININ A] | 0.09 nM | 14 µM | 
2 | COCOc1c(OCOC)c(-c2ccc(O)cc2)c(C)c(C)c1-c1ccc(O)cc1 | 0.32 nM |  | Active
3 | Cc1c(C)c(-c2ccc(O)cc2)c(O)c(O)c1-c1ccc(O)cc1 | 0.02 nM |  | 
4 | COc1ccc2c(COC(=O)CCCCCn3cc(COc4ccc(-c5c(C)c(C)c(-c6ccc(O)cc6)c(O)c5O)cc4)nn3)cc(=O)oc2c1 | 0.55 nM |  | 
5 | Cc1c(C)c(-c2ccc(OCc3cn(CCCCCCNC(=O)CCCC[C@@H]4SC[C@@H]5NC(=O)N[C@@H]54)nn3)cc2)c(O)c(O)c1-c1ccc(O)cc1 | 8.15 nM |  | 
